Data reported in patent publication US6740634B1, “Sustained release compositions, process for producing the same and utilization thereof” (Takeda Chemical Industries, Ltd., priority 1998, dated 2004).
Read-outs that look alike come from different tables or passages of the source.

Assay type: physicochemical
Description: To this salt, 0.5 ml of water was added, followed by stirring at room temperature for 4 hours, after which the liquid was filtered through a 0.2 μm filter and quantified by HPLC. The peptide B and 3-hydroxy-2-naphthoic acid concentrations were 2.37 g/l and 0.751 g/l, respectively.

| water solubility relative to the water solubility of the acetate of peptide B | solubility (3-hydroxy-2-naphthoic acid concentration in saturated aqueous solution (water solubility of the salt)) | solubility (peptide B concentration in saturated aqueous solution (water solubility of the salt)) | solubility (water solubility) | SMILES |
| --- | --- | --- | --- | --- |
| not more than 1/100 | 0.751 mg/mL | 2.37 mg/mL |  | CCNC(=O)[C@@H]1CCCN1C(=O)[C@H](CCCNC(=N)N)NC(=O)[C@H](CC(C)C)NC(=O)[C@@H](CC(C)C)NC(=O)[C@H](Cc1ccc(O)cc1)NC(=O)[C@H](CO)NC(=O)[C@H](Cc1c[nH]c2ccccc12)NC(=O)[C@H](Cc1c[nH]cn1)NC(=O)[C@@H]1CCC(=O)N1 |
|  |  |  | ≥ 1000 mg/mL | CCNC(=O)[C@@H]1CCCN1C(=O)[C@H](CCCNC(=N)N)NC(=O)[C@H](CC(C)C)NC(=O)[C@@H](CC(C)C)NC(=O)[C@H](Cc1ccc(O)cc1)NC(=O)[C@H](CO)NC(=O)[C@H](Cc1c[nH]c2ccccc12)NC(=O)[C@H](Cc1c[nH]cn1)NC(=O)[C@@H]1CCC(=O)N1 [acetate of peptide B, reference compound] |
